The nature of data set [1]: Clinical chemistry: plasma ALT and creatinine. The note with it: mean ± SEM. An excerpt:
Plasma samples were collected at 6, 13, 20 and 27 days after the gene transfer and when the mice were sacrificed. Alanine aminotransferase (ALT) and creatinine (Crea) were monitored using routine clinical chemistry assays at Kuopio University Hospital Central Laboratory. Enzyme-linked immunosorbent assays (Quantikine; R&D Systems, Minneapolis, Minn.) were used to detect the presence of human sVEGFRs in plasma samples.
Safety was judged by the assessment of the histological samples of liver, spleen, kidneys and lungs as well as by the analysis of plasma ALT and Crea levels.

Data set [2] has as its system intratumoral microvessels of SKOV-3m tumors. Briefly: Microvessel and lymphatic vessel measurements in tumors (CD34, LYVE-1 immunostaining). The class given is in vivo, Balb/cA-nu female nude mice. The following applies: result in words. How it is done: Photographs of histological sections were taken and processed using an Olympus AX70 microscope (Olympus Optical, Japan), and analySIS (Soft Imaging System, GmbH, Germany) and PhotoShop (Adobe) softwares. Microvessel density (MVD) and total microvascular area (%) of the tumors (TVA) were measured from CD34-immunostained sections using analySIS software at 100× magnification in a blinded manner (FIG. 3b). Six to ten different fields which represented maximum microvessel density areas were selected from each tumor. Necrotic areas were avoided. In addition, the total number of LYVE-1 positive lymphatic vessels per section was counted. Means±SEM of the measurements are reported.

Regarding Bevacizumab, in data set [1] (Day 6 after treatment), the ALT is given as 12.9 ± 3 U/l and the Crea worked out at 7.4 ± 1 um/l. For the same molecule, in data set [1] (Day 13 after treatment), the ALT is reported as 56.3 ± 22 U/l and the Crea is 12.4 ± 4 um/l. The “effect on angiogenesis by microvessel measurements” value in data set [2] is recorded as “did not have any effect”.

In data set [1] (Day 6 after treatment), `N.N.O=C([O-])C1(C(=O)[O-])CCC1.[Pt+2]` [Carboplatin] returned an ALT of 10.0 ± 1 U/l and a Crea of 14.4 ± 3 um/l. In data set [1] (Day 13 after treatment), this molecule showed an ALT of 399 ± 209 U/l and a Crea of 4.9 ± 2 um/l.
